Assay results reported in article PMC8092523 (Antimicrobial Agents and Chemotherapy, 2021).

Legend:
pYL42 and pYL53 strains = type: cell-based, Mycobacterium smegmatis
[1] = test system: mc^27000:Δc− strain with pYL60 or pYL3; type: cell-based, M. tuberculosis

Structure (SMILES): CN[C@@H]1[C@H](O)[C@H](NC)[C@H]2O[C@]3(O)[C@H](O[C@@H]2[C@H]1O)O[C@H](C)C[C@H]3NC(=O)Cc1ccc(Cl)cn1 [Spa]
- bactericidal activity against pYL53 compared with pYL42 strain (pYL42 and pYL53 strains): at least an order of magnitude lower
- bactericidal activity against pYL60 strain compared with pYL3 control strain [1]: significantly decreased
